Several values for one entry are separate records, joined by “and”; a condition that tells them apart may be missing. Identical values can stand only once.
Molecular target: T1, c-Src (Homo sapiens, UniProt P12931)
T1 construct: purchased Upstate Biotechnologies
Test: c-Src Kinase Assay (ELISA format)
Assay type: biochemical
Method: Inhibitors of Src (partially purified preparation purchased from Upstate Biotechnologies) tyrosine kinase activity are analyzed in an ELISA format. […] Horseradish Peroxidase (HRP)-conjugated anti-phosphotyrosine is used to detect phosphorylated peptide via a color reaction. Conditions recommended by the manufacturer are employed.
Reaction conditions: Five microliter aliquots of each compound prepared fresh at the time of the assay are added as a solution in 10mM HEPES pH 7.5, 10% DMSO to the reaction well. Thirty-five microliters of reaction mix containing Src, buffer and peptide/bovine serum albumin mix are added to the compound wells and incubated at 30°C for 10 minutes (reaction buffer: 50mM TrisHCl pH 7.5, 10mM MgCl2, 0.1mM EGTA, 0.5mM Na3VO4). The reaction is started by addition of 10 microliters of ATP, incubated at 30°C for 1 hour, and stopped by addition of 20 microliters of 0.5M EDTA. The reaction mixture with the phosphorylated peptide is then transferred to a streptavidin-coated microtiter plate (provided in the kit) and allowed to bind for 20 minutes. Unbound peptide and reaction mixture is decanted and the plate is washed with PBS six times. HRP-conjugated phosphotyrosine antibody supplied in the kit is incubated with the plate for one hour, then decanted. The plate is again washed with PBS six times.
Activity is determined as % inhibition as calculated by the formula: (1 - Abs/Abs(max)) x 100 = % inhibition.

T1 sequence (P12931 whole entry, species assumed): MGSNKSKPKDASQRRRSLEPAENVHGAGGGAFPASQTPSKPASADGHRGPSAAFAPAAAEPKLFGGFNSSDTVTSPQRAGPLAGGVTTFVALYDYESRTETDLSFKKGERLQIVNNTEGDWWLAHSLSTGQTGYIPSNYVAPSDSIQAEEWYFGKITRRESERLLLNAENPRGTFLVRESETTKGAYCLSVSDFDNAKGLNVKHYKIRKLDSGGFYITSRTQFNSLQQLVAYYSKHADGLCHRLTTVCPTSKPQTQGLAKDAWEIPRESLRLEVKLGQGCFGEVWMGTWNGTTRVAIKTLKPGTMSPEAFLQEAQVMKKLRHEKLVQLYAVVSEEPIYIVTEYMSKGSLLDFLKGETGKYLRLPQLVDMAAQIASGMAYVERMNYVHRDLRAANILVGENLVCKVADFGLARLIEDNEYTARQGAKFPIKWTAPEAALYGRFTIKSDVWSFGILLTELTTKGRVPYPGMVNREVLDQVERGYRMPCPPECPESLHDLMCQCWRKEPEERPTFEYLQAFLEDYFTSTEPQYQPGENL

Row | IC50 | inhibition at 1 µM (at 1 µM) | SMILES
1 | 51 nM | – | COc1cc(Nc2c(C#N)cnc3ccc(-c4csc(C=O)c4)cc23)c(Cl)cc1Cl [Example 45, 4-(2,4-Dichloro-5-methoxyanilino)-6-(5-formyl-3-thienyl)-3-quinolinecarbonitrile]
2 | 3 nM | – | COc1cc(Nc2c(C#N)cnc3cc(-c4ccc(CN5CCOCC5)c(CN5CCOCC5)c4)ccc23)c(Cl)cc1Cl [Example 34, 7-[3,4-Bis(4-morpholinylmethyl)phenyl]-4-(2,4-dichloro-5-methoxyanilino)-3-quinolinecarbonitrile]
3 | 4.4 nM | – | CCN1CCN(c2ccc(-c3ccc4c(Nc5cc(OC)c(Cl)cc5Cl)c(C#N)cnc4c3)cn2)CC1 [Example 197, 4-(2,4-dichloro-5-methoxyanilino)-7-[6-(4-ethyl-1-piperazinyl)-3-pyridinyl]-3-quinolinecarbonitrile]
4 | – | 40% | N#Cc1cnc2cc(C#CCO)ccc2c1Nc1ccc(Cl)cc1Cl [Example 14, 4-(2,4-Dichloroanilino)-7-(3-hydroxy-1-propynyl)-3-quinolinecarbonitrile]
5 | 31 nM | – | COc1cc(Nc2c(C#N)cnc3cc(-c4cnc(CN5CCOCC5)n4C)ccc23)c(Cl)cc1Cl [Example 226, 4-(2,4-dichloro-5-methoxyanilino)-7-[1-methyl-2-(4-morpholinylmethyl)-1H-imidazol-5-yl]-3-quinolinecarbonitrile]
6 | 4.7 nM | – | COc1cc(Nc2c(C#N)cnc3cc(-c4ccc(CN5CC[S+]([O-])CC5)cc4)ccc23)c(Cl)cc1Cl [Example 151, 4-[(2,4-dichloro-5-methoxyphenyl)amino]-7-{4-[(1-oxido-4-thiomorpholinyl)methyl]phenyl}-3-quinolinecarbonitrile]
7 | 25 nM | – | N#Cc1cnc2cc(-c3csc(C=O)c3)ccc2c1Nc1ccc(Cl)cc1Cl [Example 44, 4-(2,4-Dichloroanilino)-7-(5-formyl-3-thienyl)-3-quinolinecarbonitrile]
8 | 25 nM | – | N#Cc1cnc2cc(-c3csc(CN4CCOCC4)c3)ccc2c1Nc1ccc(Cl)cc1F [Example 1, 4-(4-Chloro-2-fluoroanilino)-7-[5-(4-morpholinylmethyl)-3-thienyl]-3-quinolinecarbonitrile]
9 | 180 nM | – | N#Cc1cnc2cc(-c3ccc(-c4ccccn4)s3)ccc2c1Nc1ccc(Cl)cc1Cl [Example 18, 4-(2,4-Dichloroanilino)-7-[5-(2-pyridinyl)-2-thienyl]-3-quinolinecarbonitrile]
10 | 40 nM and 9 nM | – | COc1cc(Nc2c(C#N)cnc3cc(-c4ccc(/C=C/CN5CCOCC5)s4)ccc23)c(Cl)cc1Cl [Example 21, 4-(2,4-Dichloro-5-methoxyanilino)-7-{5-[(E)-3-(4-morpholinyl)-1-propenyl]-2-thienyl}-3-quinolinecarbonitrile]
11 | 0.69 nM | – | COc1cc(Nc2c(C#N)cnc3cc(-c4ccc(CN5CCC(C(=O)O)CC5)cn4)ccc23)c(Cl)cc1Cl [Example 177, 1-{6-[3-cyano-4-(2,4-dichloro-5-methoxyphenylamino)-quinolin-7yl]-pyridin-3-ylmethyl}-piperidine-4-carboxylic acid]
12 | 1.5 nM | – | COc1cc(Nc2c(C#N)cnc3cc(-c4cc(CN5CCOCC5)cs4)ccc23)c(Cl)cc1Cl [Example 68, 4-(2,4-Dichloro-5-methoxyanilino)-7-[4-(4-morpholinylmethyl)-2-thienyl]-3-quinolinecarbonitrile]
13 | 10 nM | – | COc1cc(Nc2c(C#N)cnc3cc(-c4ccc(CCN5CCOCC5)cc4)c(OC)cc23)c(Cl)cc1Cl [Example 40, 4-(2,4-Dichloro-5-methoxyanilino)-6-methoxy-7-{4-[2-(4-morpholinyl)ethyl]phenyl}-3-quinolinecarbonitrile]
14 | 2.7 nM | – | COc1cc(Nc2c(C#N)cnc3cc(-c4csc(C5OCCO5)c4)ccc23)c(Cl)cc1Cl [Example 42, 4-(2,4-Dichloro-5-methoxyanilino)-7-[5-(1,3-dioxolan-2-yl)-3-thienyl]-3-quinolinecarbonitrile]

Source: patent EP1268431B1 (Wyeth, priority 2000, dated 2001)
